The source of these data is patent publication US11034685B2, “Aminopyridine derivatives as TAM family kinase inhibitors” (SignalChem Lifesciences Corporation, priority 2013, dated 2021).

SMILES strings stand for the structures.

By IC50 is commonly meant the concentration needed to halve the response being measured.

Holding throughout (type): biochemical
Test [1] concerns the target T1, Recombinant human Tyro3 (455-end) (Homo sapiens, UniProt Q06418).
T1 construct: GST (N); made in house; host or cells: Sf9 insect cells (baculovirus)
T1 sequence (Q06418 455-890 limits assumed): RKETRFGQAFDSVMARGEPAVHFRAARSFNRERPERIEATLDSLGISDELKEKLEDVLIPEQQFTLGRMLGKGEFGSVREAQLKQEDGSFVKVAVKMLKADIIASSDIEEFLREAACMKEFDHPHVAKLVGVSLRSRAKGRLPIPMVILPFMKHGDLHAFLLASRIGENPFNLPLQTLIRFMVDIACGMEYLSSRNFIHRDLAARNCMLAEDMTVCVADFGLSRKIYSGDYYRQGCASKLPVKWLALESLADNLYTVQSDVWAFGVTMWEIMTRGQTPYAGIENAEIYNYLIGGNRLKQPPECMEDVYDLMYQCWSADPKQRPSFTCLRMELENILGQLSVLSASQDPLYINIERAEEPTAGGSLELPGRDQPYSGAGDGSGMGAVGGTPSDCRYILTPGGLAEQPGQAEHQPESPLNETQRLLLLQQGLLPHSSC
As to the kind of experiment: Kinase enzymatic activity assay ([33P]-ATP phosphate transfer), Tyro3. Particulars: inhibitory activity on Tyro3; class symbols. How it is done:
(§1) Preparation of Active Recombinant Kinase Proteins:
(§2) Recombinant human Tyro3 (455-end, the gene accession number NM_006293), human Axl (473-end, the gene accession number NM_021913) and human Mer (578-872, the gene accession number NM_006343) were independently expressed by baculovirus in Sf9 insect cells using an N-terminal GST tag. The recombinant proteins were stored at −70° C. in a medium containing 50 mM Tris-HCl, pH 7.5, 150 mM NaCl, 10 mM glutathione, 0.1 mM EDTA, 0.25 mM DTT, 0.1 mM PMSF and 25% glycerol. The recombinant proteins were aliquoted into smaller quantities after centrifugation to avoid repeated handling and multiple freeze/thaw cycles for the most favorable performance.
(§3) Preparation of Assay Reagents:
(§4) Kinase Assay Buffer: This buffer solution consisted of the following components: 25 mM MOPS, pH 7.2, 12.5 mM β-glycerol-phosphate, 25 mM MgCl2, 5 mM EGTA, 2 mM EDTA and DTT 0.25 mM which was added prior to use.
(§5) Kinase Dilution Buffer: Kinase Assay Buffer was diluted at a 1:4 ratio (5× dilution) with distilled water.
(§6) [^33P]-ATP assay cocktail: In a designated radioactive working area, a 250 μM [^33P]-ATP assay cocktail was prepared by the addition of the following components: 150 μL of 10 mM ATP stock solution, 100 μL [^33P]-ATP (1 mci/100 μL), 5.75 mL of kinase assay buffer. This solution was stored in 1 mL aliquots at −20 OC.
(§7) ATP stock solution (10 mM): The ATP stock solution was prepared by dissolving 55 mg of ATP in 10 mL of kinase assay buffer. It was stored in 200 μL aliquots at −20° C.
(§8) Active Kinase Stock Solution: The active recombinant kinase protein (0.1 μg/μL) was diluted with Kinase Dilution Buffer and the activity was assayed using a serial dilution method. The specific activity is expressed in nmoL/min/mg.
(§9) Substrates: poly(4:1 glu:tyr) is the substrate used for each kinase Tyro3, Axl and Mer: The peptide substrate was dissolved in water to give the final concentration of 1 mg/mL.
(§10) Test compound solution: Test compound was dissolved in DMSO to obtain a 10 mM solution. The assay solution was prepared by adding 5 μL of this solution to […] of 10% DMSO/water to obtain the final concentration of 50 μM.
(§11) The enzymatic activity of all three kinases was determined as follows. Using a 96-well plate, the wells were divided into three categories: Blank wells, […] and Test wells. In Test wells, 5 μL of the test compound solution and 5 μL of the substrate solution were added. In Control wells, 5 μL of 10% DMSO/water and 5 μL of the substrate solution were added. In Blank wells, 10 μL of 10% DMSO/water was added. To each well was added 10 μL of Active Kinase Stock Solution to make up the volume in each well to 20 μL. All test samples, controls and blanks were run in duplicate. The reaction was initiated by the addition of 5 μL of [^33P]-ATP assay cocktail, bringing the final volume up to 25 μL in every well. The mixture was incubated at room temperature for 30 minutes. The reaction was terminated by transferring 10 μL of the reaction mixture into a Millipore MultiScreen filter plate (cat. number MSPHN6B50). The filter plate was washed in a 1% phosphoric acid solution with constant gentle shaking for 15 minutes and this step was repeated once. After the plate was dried in air, scintillation fluid was added to each well and the radioactivity in each well in CPM was counted by a Microbeta TriLux. The corrected CPM in each test well was determined by subtracting the average value of Blank well values. Percentage of inhibition of the kinase enzymatic activity by the test compound was determined using the following formula: […]
(§12) The IC50 values were determined in a similar way following a serial dilution of the test compound. The percentage of inhibition at each concentration was calculated following the above formula. The IC50 was estimated from the curve of % Inhibition against Concentration in log unit using Prism 5, version 5.01.

In a further test the target is T2, human Axl (473-end) (Homo sapiens, UniProt P30530).
T2 construct: GST (N); made in house; host or cells: Sf9 insect cells (baculovirus)
T2 sequence (P30530 473-894 limits assumed): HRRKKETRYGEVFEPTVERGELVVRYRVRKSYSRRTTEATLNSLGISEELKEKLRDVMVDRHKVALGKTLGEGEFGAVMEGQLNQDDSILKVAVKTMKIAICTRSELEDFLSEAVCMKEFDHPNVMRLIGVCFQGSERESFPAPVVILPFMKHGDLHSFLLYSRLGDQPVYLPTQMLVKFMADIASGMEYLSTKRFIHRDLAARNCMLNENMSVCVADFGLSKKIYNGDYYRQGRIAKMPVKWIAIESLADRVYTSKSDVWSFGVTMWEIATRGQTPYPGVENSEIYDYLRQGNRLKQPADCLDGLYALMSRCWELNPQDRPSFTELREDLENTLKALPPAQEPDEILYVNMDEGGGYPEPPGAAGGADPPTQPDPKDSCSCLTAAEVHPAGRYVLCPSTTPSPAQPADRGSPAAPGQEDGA
As to the kind of experiment: Kinase enzymatic activity assay ([33P]-ATP phosphate transfer), Axl. Particulars: inhibitory activity on Axl; class symbols. How it is done:
as §1, §2, §3, §4, §5, §6, §7, §8, §9, §10, §11, §12

A further test addresses T3, human Mer (578-872) (Homo sapiens, UniProt Q12866).
T3 construct: GST (N); made in house; host or cells: Sf9 insect cells (baculovirus)
T3 sequence (Q12866 578-872): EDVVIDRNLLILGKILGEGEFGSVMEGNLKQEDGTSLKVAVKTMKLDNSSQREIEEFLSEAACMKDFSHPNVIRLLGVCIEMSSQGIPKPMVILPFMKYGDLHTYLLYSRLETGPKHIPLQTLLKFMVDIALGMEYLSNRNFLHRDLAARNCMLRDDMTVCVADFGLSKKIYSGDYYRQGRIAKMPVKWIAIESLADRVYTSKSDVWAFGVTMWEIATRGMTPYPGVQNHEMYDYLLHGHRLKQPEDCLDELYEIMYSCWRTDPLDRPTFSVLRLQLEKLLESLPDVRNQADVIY
As to the kind of experiment: Kinase enzymatic activity assay ([33P]-ATP phosphate transfer), Mer. Particulars: inhibitory activity on Mer; class symbols. How it is done: as §1, §2, §3, §4, §5, §6, §7, §8, §9, §10, §11, §12

With `Nc1ncc(-c2cnn(C3CCNCC3)c2)cc1-c1ncc(-c2cccc(Cl)c2)o1` [3-(5-(3-chlorophenyl)oxazol-2-yl)-5-(1-(piperidin-4-yl)-1H-pyrazol-4-yl)pyridin-2-amine], the IC50 (in test [1]; against human Axl (473-end); against human Mer (578-872)) was below 0.5 µM throughout.

As to `Nc1ncc(-c2cnn(C3CCNCC3)c2)cc1-c1nnc(-c2ccccn2)o1` [5-(1-(piperidin-4-yl)-1H-pyrazol-4-yl)-3-(5-(pyridin-2-yl)-1,3,4-oxadiazol-2-yl)pyridin-2-amine], the IC50 (in test [1]; against human Axl (473-end); against human Mer (578-872)) was below 0.5 µM in each case.

`Nc1ncc(-c2cnn(C3CCN(C(=O)c4ccccc4)CC3)c2)cc1-c1nnc(-c2c(Cl)cccc2Cl)o1` [(4-(4-(6-amino-5-(5-(2,6-dichlorophenyl)-1,3,4-oxadiazol-2-yl)pyridin-3-yl)-1H-pyrazol-1-yl)piperidin-1-yl)(phenyl)methanone]: the IC50 (in test [1]; against human Axl (473-end); against human Mer (578-872)) was below 0.5 µM each time.

`Nc1ncc(-c2cnn(C3CCOCC3)c2)cc1-c1ccc(-c2ccccc2)o1` [3-(5-phenylfuran-2-yl)-5-(1-(tetrahydro-2H-pyran-4-yl)-1H-pyrazol-4-yl)pyridin-2-amine]: the IC50 (in test [1]; at human Axl (473-end); against human Mer (578-872)) was 1 to 10 µM in each case.

In the case of `CN1CCC(n2cc(-c3cnc(N)c(-c4ncc(-c5ccc(Cl)cc5)o4)c3)cn2)CC1` [3-(5-(4-chlorophenyl)oxazol-2-yl)-5-(1-(1-methylpiperidin-4-yl)-1H-pyrazol-4-yl)pyridin-2-amine], the IC50 (in test [1]; on human Axl (473-end); at human Mer (578-872)) was below 0.5 µM throughout.

`Nc1ncc(-c2cnn(C3CCCCC3)c2)cc1-c1nnc(-c2c(Cl)cccc2Cl)o1` [5-(1-cyclohexyl-1H-pyrazol-4-yl)-3-(5-(2,6-dichlorophenyl)-1,3,4-oxadiazol-2-yl)pyridin-2-amine]: the IC50 (in test [1]; on human Axl (473-end); on human Mer (578-872)) was above 10 µM in each case.

With `CC(=O)N1CCC(n2cc(-c3cnc(N)c(-c4ncc(-c5ccc(Cl)cc5)o4)c3)cn2)CC1` [1-(4-(4-(6-amino-5-(5-(4-chlorophenyl)oxazol-2-yl)pyridin-3-yl)-1H-pyrazol-1-yl)piperidin-1-yl)ethanone], the IC50 (in test [1]; at human Axl (473-end); on human Mer (578-872)) was above 10 µM in each case.

Consider `Nc1ncc(-c2cnn(C3CCN(C(=O)c4ccccc4)CC3)c2)cc1-c1ncc(-c2ccc(Cl)cc2)o1` [(4-(4-(6-amino-5-(5-(4-chlorophenyl)oxazol-2-yl)pyridin-3-yl)-1H-pyrazol-1-yl)piperidin-1-yl)(phenyl)methanone], for which the figures for the IC50 (in test [1]; at human Axl (473-end); against human Mer (578-872)) were below 0.5 µM, below 0.5 µM and 1 to 10 µM, respectively.

As for `CN1CCC(n2cc(-c3cnc(N)c(-c4nc(-c5c(Cl)cccc5Cl)no4)c3)cn2)CC1` [3-(3-(2,6-dichlorophenyl)-1,2,4-oxadiazol-5-yl)-5-(1-(1-methylpiperidin-4-yl)-1H-pyrazol-4-yl)pyridin-2-amine], the IC50 (in test [1]; at human Axl (473-end); at human Mer (578-872)) was below 0.5 µM in each case.

`CN1CCC(n2cc(-c3cnc(N)c(-c4nnc(-c5c(Cl)cccc5Cl)o4)c3)cn2)CC1` [3-(5-(2,6-dichlorophenyl)-1,3,4-oxadiazol-2-yl)-5-(1-(1-methylpiperidin-4-yl)-1H-pyrazol-4-yl)pyridin-2-amine]: the IC50 (in test [1]; on human Axl (473-end); at human Mer (578-872)) was below 0.5 µM throughout.

Regarding `Nc1ncc(-c2cnn(C3CCCCC3)c2)cc1-c1ccc(-c2ccccc2)o1` [5-(1-cyclohexyl-1H-pyrazol-4-yl)-3-(5-phenylfuran-2-yl)pyridin-2-amine], the IC50 (in test [1]; against human Axl (473-end); at human Mer (578-872)) was 1 to 10 µM in each case.

For the molecule `Nc1ncc(-c2cnn(C3CCN(C(=O)C4CC4)CC3)c2)cc1-c1nnc(-c2c(Cl)cccc2Cl)o1` [(4-(4-(6-amino-5-(5-(2,6-dichlorophenyl)-1,3,4-oxadiazol-2-yl)pyridin-3-yl)-1H-pyrazol-1-yl)piperidin-1-yl)(cyclopropyl)methanone], the half-maximal inhibitory concentration (IC50) in test [1] is below 0.5 µM; at human Axl (473-end), below 0.5 µM; at human Mer (578-872), 1 to 10 µM.

With `Nc1ncc(-c2cnn(C3CCCCC3)c2)cc1-c1nc(-c2ccccc2)no1` [5-(1-cyclohexyl-1H-pyrazol-4-yl)-3-(3-phenyl-1,2,4-oxadiazol-5-yl)pyridin-2-amine], the figures for the IC50 (in test [1]; at human Axl (473-end); on human Mer (578-872)) were 1 to 10 µM, 1 to 10 µM and above 10 µM, respectively.

As to `Nc1ncc(-c2cnn(C3CCN(C(=O)Cc4ccccc4)CC3)c2)cc1-c1nc(-c2ccccc2)no1` [1-(4-(4-(6-amino-5-(3-phenyl-1,2,4-oxadiazol-5-yl)pyridin-3-yl)-1H-pyrazol-1-yl)piperidin-1-yl)-2-phenylethanone], the IC50 fell in the range of 1 to 10 µM in test [1], 0.5 to 1 µM at human Axl (473-end) and 1 to 10 µM against human Mer (578-872).

As to `CC(C)(C)C(=O)N1CCC(n2cc(-c3cnc(N)c(-c4ncc(-c5cccc(Cl)c5)o4)c3)cn2)CC1` [1-(4-(4-(6-amino-5-(5-(3-chlorophenyl)oxazol-2-yl)pyridin-3-yl)-1H-pyrazol-1-yl)piperidin-1-yl)-2,2-dimethylpropan-1-one], the IC50 in test [1] is below 0.5 µM; at human Axl (473-end), below 0.5 µM; on human Mer (578-872), 1 to 10 µM.
